Reference: ChEMBL document CHEMBL1909607, “Synthesis and radioligand binding studies of bis-(8-isopropyl-isoquinolinium) derivatives as ligands for apamin-sensitive sites on cloned SK2 and SK3 channels” (Bioorg Med Chem Lett, 2011)

Columns and labels:
Assay type in all cases: cell-based
[1] = molecular target: T1, Small conductance calcium-activated potassium channel protein 2 (Homo sapiens, UniProt Q9H2S1); experiment: Displacement of [125I]-apamin from cloned SK2 channel expressed in human HEK293 cells after 1 hr by liquid scintillation counting
[2] = molecular target: T2, Small conductance calcium-activated potassium channel protein 3 (Homo sapiens, UniProt Q9UGI6); experiment: Displacement of [125I]-apamin from cloned SK3 channel expressed in human HEK293 cells after 1 hr by liquid scintillation counting
[3] = molecular target: T2, Small conductance calcium-activated potassium channel protein 3; experiment: Inhibition of cloned human SK3 channel expressed in human HEK293 cells by patch clamp assay in the presence of 1 uM intracellular Ca2+
[4] = molecular target: Small conductance calcium-activated potassium channel protein 2 (Rattus norvegicus, UniProt P70604); experiment: Inhibition of cloned rat SK2 channel expressed in human HEK293 cells by patch clamp assay in the presence of 1 uM intracellular Ca2+
[5] = molecular target: T1, Small conductance calcium-activated potassium channel protein 2; experiment: Inhibition of cloned SK2 channel expressed in human HEK293 cells at 10 uM

T1 sequence (Q9H2S1 whole entry): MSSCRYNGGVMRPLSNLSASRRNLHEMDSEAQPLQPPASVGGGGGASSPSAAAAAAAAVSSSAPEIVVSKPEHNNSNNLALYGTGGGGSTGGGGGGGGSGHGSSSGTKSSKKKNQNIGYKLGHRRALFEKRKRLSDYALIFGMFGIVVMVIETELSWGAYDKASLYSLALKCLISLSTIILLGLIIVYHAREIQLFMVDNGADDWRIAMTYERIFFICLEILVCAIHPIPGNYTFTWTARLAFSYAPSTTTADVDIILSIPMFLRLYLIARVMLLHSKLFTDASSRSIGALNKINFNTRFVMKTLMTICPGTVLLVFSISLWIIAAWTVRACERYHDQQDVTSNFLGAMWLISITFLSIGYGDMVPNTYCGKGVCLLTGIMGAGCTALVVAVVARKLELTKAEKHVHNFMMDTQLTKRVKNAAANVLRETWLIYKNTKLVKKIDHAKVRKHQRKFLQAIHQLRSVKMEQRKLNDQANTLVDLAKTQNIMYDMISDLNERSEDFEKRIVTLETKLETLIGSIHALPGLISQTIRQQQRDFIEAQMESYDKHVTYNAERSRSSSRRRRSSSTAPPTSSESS
T2 sequence (Q9UGI6 whole entry): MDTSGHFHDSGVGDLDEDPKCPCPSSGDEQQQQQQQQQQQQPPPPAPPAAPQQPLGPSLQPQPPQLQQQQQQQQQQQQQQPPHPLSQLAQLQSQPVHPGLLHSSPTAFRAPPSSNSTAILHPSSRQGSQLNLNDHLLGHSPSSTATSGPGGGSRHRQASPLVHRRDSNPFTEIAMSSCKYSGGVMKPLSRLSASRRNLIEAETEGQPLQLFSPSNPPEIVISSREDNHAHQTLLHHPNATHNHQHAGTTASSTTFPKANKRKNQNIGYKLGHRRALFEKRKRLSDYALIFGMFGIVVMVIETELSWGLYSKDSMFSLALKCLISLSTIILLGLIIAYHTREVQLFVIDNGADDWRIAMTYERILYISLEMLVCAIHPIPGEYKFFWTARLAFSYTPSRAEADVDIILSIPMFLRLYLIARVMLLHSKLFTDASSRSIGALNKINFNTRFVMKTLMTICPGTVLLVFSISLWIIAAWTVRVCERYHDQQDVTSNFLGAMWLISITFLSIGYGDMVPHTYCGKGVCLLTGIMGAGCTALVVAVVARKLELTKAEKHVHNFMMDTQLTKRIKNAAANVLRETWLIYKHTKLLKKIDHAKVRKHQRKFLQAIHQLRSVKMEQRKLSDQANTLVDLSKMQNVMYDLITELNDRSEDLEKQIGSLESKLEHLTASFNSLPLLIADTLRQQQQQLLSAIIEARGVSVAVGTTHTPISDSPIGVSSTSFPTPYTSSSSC
Chain of Small conductance calcium-activated potassium channel protein 2 (Rattus norvegicus, UniProt P70604) (P70604 whole entry): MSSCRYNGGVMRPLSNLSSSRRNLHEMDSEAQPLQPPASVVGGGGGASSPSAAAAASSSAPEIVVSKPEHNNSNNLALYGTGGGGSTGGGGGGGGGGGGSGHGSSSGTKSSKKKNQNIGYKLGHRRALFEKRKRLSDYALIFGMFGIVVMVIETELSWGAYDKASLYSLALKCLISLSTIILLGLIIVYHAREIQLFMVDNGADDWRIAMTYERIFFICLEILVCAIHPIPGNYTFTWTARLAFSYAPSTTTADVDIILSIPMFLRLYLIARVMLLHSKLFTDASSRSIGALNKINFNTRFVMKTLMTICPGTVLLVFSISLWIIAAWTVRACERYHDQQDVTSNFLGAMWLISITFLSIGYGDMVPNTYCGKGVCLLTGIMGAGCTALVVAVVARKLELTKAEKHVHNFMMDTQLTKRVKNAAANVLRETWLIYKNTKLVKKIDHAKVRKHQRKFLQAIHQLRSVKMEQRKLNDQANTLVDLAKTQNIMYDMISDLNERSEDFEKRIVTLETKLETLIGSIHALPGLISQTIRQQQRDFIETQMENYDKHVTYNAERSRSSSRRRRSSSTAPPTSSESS

| Ki [1] [nM] | Ki [2] [nM] | inhibition [5] [%] | Compound | other results |
| --- | --- | --- | --- | --- |
| 593 | 837 |  | CC(C)c1cccc2cc[n+](C)c(CCCc3c4c(C(C)C)cccc4cc[n+]3C)c12 |  |
| 194 | 214 |  | CC(C)c1cccc2cc[n+](C)c(CCCCc3c4c(C(C)C)cccc4cc[n+]3C)c12 |  |
| 90 | 46 |  | CC(C)c1cccc2cc[n+](C)c(Cc3cccc(Cc4c5c(C(C)C)cccc5cc[n+]4C)c3)c12 | IC50 [3]: 2970 nM; IC50 [4]: 1600 nM |
|  |  | 41 | CC(C)c1cccc2c1C(CCCC1c3c(cccc3C(C)C)CCN1C)N(C)CC2 (racemic) |  |
|  |  | 41 | CC(C)c1cccc2c1C(Cc1cccc(CC3c4c(cccc4C(C)C)CCN3C)c1)N(C)CC2 (racemic) |  |
|  |  | 41 | CC(C)c1cccc2c1C(CCCCCC1c3c(cccc3C(C)C)CCN1C)N(C)CC2 (racemic) |  |
| 878 | 575 |  | CC(C)c1cccc2cc[n+](C)c(CCCCCc3c4c(C(C)C)cccc4cc[n+]3C)c12 |  |
| 397 | 1270 |  | CC(C)c1cccc2cc[n+](C)c(Cc3ccc(Cc4c5c(C(C)C)cccc5cc[n+]4C)cc3)c12 |  |
|  |  | 41 | CC(C)c1cccc2c1C(CCCCC1c3c(cccc3C(C)C)CCN1C)N(C)CC2 (racemic) |  |
|  |  | 41 | CC(C)c1cccc2c1C(Cc1ccc(CC3c4c(cccc4C(C)C)CCN3C)cc1)N(C)CC2 (racemic) |  |
